Assay results taken from the supplement of paper PMC11061612.

How the values were obtained:
Test in all cases: Bliss excess, mean over the matrix (fraction); higher = more synergy
[1] = system: NCI-H2373 (Mesothelioma)
Summary of the method: (§1)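 Cell lines grown in DMEM/F12 or RPMI with 10% FBS were plated in 1536-well plates and held 24 hours at 37°C, 5% CO2 before 72 hours of exposure to two-drug dose matrices, with DMSO typically at 0.2%. CellTiter-Glo 2.0 luminescence gave viability, which was converted to inhibition. Vehicle wells were set to 0 and blank wells to 1. Combination Emax is the second-highest inhibition in the matrix, and Bliss excess is the observed combination effect minus the expected EA + EB − EA·EB, where EA and EB are the single-agent effects.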

[2] = system: NCI-H1963 (Small Cell Lung Carcinoma)
Summary of the method: as §1

[3] = system: SUP-M2 (T-Cell Non-Hodgkin's Lymphoma)
Summary of the method: as §1

[4] = system: NCI-H226 (Mesothelioma)
Summary of the method: as §1

[5] = system: SK-CO-1 (Colorectal Carcinoma)
Summary of the method: as §1

[6] = system: OVCAR-3 (Ovarian Carcinoma)
Summary of the method: as §1

[7] = system: T47D (Breast Carcinoma)
Summary of the method: as §1

[8] = system: LS-1034 (Colorectal Carcinoma)
Summary of the method: as §1

[9] = system: IST-MEL1 (Melanoma)
Summary of the method: as §1

[10] = system: T84 (Colorectal Carcinoma)
Summary of the method: as §1

[11] = system: NMC-G1 (Low Grade Glioma)
Summary of the method: as §1

[12] = system: ZR-75-30 (Breast Carcinoma)
Summary of the method: as §1

[13] = system: SiHa (Cervical Carcinoma)
Summary of the method: as §1

[14] = system: LCLC-103H (Non-Small Cell Lung Carcinoma)
Summary of the method: as §1

[15] = system: SAT (Head and Neck Carcinoma)
Summary of the method: as §1

[16] = system: SNU-407 (Colorectal Carcinoma)
Summary of the method: as §1

[17] = system: NB1 (Neuroblastoma)
Summary of the method: as §1

[18] = system: OAW-28 (Ovarian Carcinoma)
Summary of the method: as §1

[19] = system: NCI-H1876 (Small Cell Lung Carcinoma)
Summary of the method: as §1

[20] = system: MM1S (Plasma Cell Myeloma)
Summary of the method: as §1

| Compound | Bliss excess [1] | Bliss excess [2] | Bliss excess [3] | Bliss excess [4] | Bliss excess [5] | Bliss excess [6] | Bliss excess [7] | Bliss excess [8] | Bliss excess [9] | Bliss excess [10] | Bliss excess [11] | Bliss excess [12] | Bliss excess [13] | Bliss excess [14] | Bliss excess [15] | Bliss excess [16] | Bliss excess [17] | Bliss excess [18] | Bliss excess [19] | Bliss excess [20] |
| --- | --- | --- | --- | --- | --- | --- | --- | --- | --- | --- | --- | --- | --- | --- | --- | --- | --- | --- | --- | --- |
| CN(CCO)CC[C@H](CSc1ccccc1)Nc1ccc(S(=O)(=O)NC(=O)c2ccc(N3CCC([C@@H](O)c4ccccc4-c4ccc(Cl)cc4)CC3)cc2)cc1S(=O)(=O)C(F)(F)F [AZD4320] + C=CCn1c(=O)c2cnc(Nc3ccc(N4CCN(C)CC4)cc3)nc2n1-c1cccc(C(C)(C)O)n1 [AZD1775] (first compound max 1 µM, partner max 1 µM) | -0.0089 | 0.0565 | 0.0681 | -0.025 | -0.0412 | 0.0007 | -0.0509 | 0.0344 | 0.0339 | -0.0408 | 0.0422 | -0.0083 | -0.0358 | 0.0297 | -0.0251 | -0.0677 | 0.0014 | 0.0652 | 0.0833 | 0.0981 |
| CN(CCO)CC[C@H](CSc1ccccc1)Nc1ccc(S(=O)(=O)NC(=O)c2ccc(N3CCC([C@@H](O)c4ccccc4-c4ccc(Cl)cc4)CC3)cc2)cc1S(=O)(=O)C(F)(F)F [AZD4320] + CCN(CCO)CCCOc1ccc2c(Nc3cc(CC(=O)Nc4cccc(F)c4)[nH]n3)ncnc2c1 [AZD2811] (first compound max 1 µM, 7x7, partner max 1 µM) | -0.0366 | 0.0054 | 0.0503 | -0.0238 | 0.0178 | -0.005 | -0.0174 | -0.0337 | 0.0445 | -0.0305 | 0.0047 | -0.0024 | -0.0219 | -0.0157 | 0.0112 | -0.102 | 0.0994 | 0.0773 | 0.0935 | 0.118 |
| CN(CCO)CC[C@H](CSc1ccccc1)Nc1ccc(S(=O)(=O)NC(=O)c2ccc(N3CCC([C@@H](O)c4ccccc4-c4ccc(Cl)cc4)CC3)cc2)cc1S(=O)(=O)C(F)(F)F [AZD4320] + CN(C)CCCOc1ccc(-c2ccc3ncc4c(c3c2)n(C2CCOCC2)c(=O)n4C)cn1 [AZD0156] (first compound max 1 µM, 7x7, partner max 1 µM) | -0.0545 | 0.0708 | 0.0491 | -0.0589 | -0.0758 | -0.0407 | -0.0056 | -0.0386 | -0.0151 | -0.0243 | -0.0362 | -0.038 | -0.0537 | -0.0704 | -0.0214 | -0.0555 | -0.0202 | -0.0218 | 0.0374 | 0.0753 |
| CN(CCO)CC[C@H](CSc1ccccc1)Nc1ccc(S(=O)(=O)NC(=O)c2ccc(N3CCC([C@@H](O)c4ccccc4-c4ccc(Cl)cc4)CC3)cc2)cc1S(=O)(=O)C(F)(F)F [AZD4320] + C[C@@H](Nc1cc(F)cc(F)c1)c1cc(C(=O)N(C)C)cc2c(=O)cc(N3CCOCC3)oc12 [AZD8186] (first compound max 1 µM, 7x7, partner max 3 µM) | -0.0561 | 0.0841 | 0.0539 | -0.015 | -0.051 | -0.0135 | -0.0242 | -0.0026 | 0.0237 | -0.0287 | 0.0254 | -0.0251 | -0.0165 | -0.0139 | -0.0231 | -0.0167 | -0.0033 | 0.0055 | 0.0682 | 0.0538 |
| CN(CCO)CC[C@H](CSc1ccccc1)Nc1ccc(S(=O)(=O)NC(=O)c2ccc(N3CCC([C@@H](O)c4ccccc4-c4ccc(Cl)cc4)CC3)cc2)cc1S(=O)(=O)C(F)(F)F [AZD4320] + Cc1cc2ncnn2cc1Nc1ncc2c(n1)n(C1CCOCC1)c(=O)n2C [AZD7648] (first compound max 1 µM, 7x7, partner max 10 µM) | -0.0389 | 0.0483 | 0.036 | -0.0674 | -0.0224 | -0.0521 | -0.0255 | -0.0403 | -0.0465 | -0.0314 | -0.0452 | -0.0359 | -0.0385 | -0.0303 | -0.0621 | 0.0313 | -0.0148 | -0.0348 | 0.0162 | 0.0657 |
| CN(CCO)CC[C@H](CSc1ccccc1)Nc1ccc(S(=O)(=O)NC(=O)c2ccc(N3CCC([C@@H](O)c4ccccc4-c4ccc(Cl)cc4)CC3)cc2)cc1S(=O)(=O)C(F)(F)F [AZD4320] + Cn1cnc2c(F)c(Nc3ccc(Br)cc3Cl)c(C(=O)NOCCO)cc21 [Selumetinib] (first compound max 1 µM, 7x7, partner max 3 µM) | 0.0263 | 0.0204 | 0.0058 | -0.0248 | 0.0154 | 0.0276 | 0.0231 | -0.0454 | -0.072 | 0.0142 | -0.0624 | -0.06 | -0.0315 | 0.0112 | 0.0523 | -0.0231 | 0.0308 | 0.0927 | 0.0752 | 0.0799 |
| Cc1c2c(nn1C)CSCc1cc(n(C)n1)CSc1cc(c3ccccc3c1)OCCCc1c(C(=O)O)n(C)c3c-2c(Cl)ccc13 [AZD5991] + C=CCn1c(=O)c2cnc(Nc3ccc(N4CCN(C)CC4)cc3)nc2n1-c1cccc(C(C)(C)O)n1 [AZD1775] (first compound max 1 µM, partner max 1 µM) | -0.0079 | 0.0006 | 0.0007 | 0.018 | -0.0425 | 0.031 | -0.0369 | -0.098 | -0.0318 | -0.0287 | -0.0012 | 0.0376 | -0.0646 | 0.0101 | 0.0173 | -0.0183 | -0.0156 | 0.0049 | -0.0292 | 0.0547 |
| Cc1c2c(nn1C)CSCc1cc(n(C)n1)CSc1cc(c3ccccc3c1)OCCCc1c(C(=O)O)n(C)c3c-2c(Cl)ccc13 [AZD5991] + CC1(C)CCC(CN2CCN(c3ccc(C(=O)NS(=O)(=O)c4ccc(NCC5CCOCC5)c([N+](=O)[O-])c4)c(Oc4cnc5[nH]ccc5c4)c3)CC2)=C(c2ccc(Cl)cc2)C1 [Venetoclax] (first compound max 1 µM, 7x7, partner max 1 µM) | -0.0391 | 0.119 | 0.0286 | -0.0582 | -0.0378 | -0.0103 | -0.0042 | -0.0159 | 0.009 | -0.0369 | -0.03 | 0.0527 | -0.129 | -0.0347 | 0.0101 | 0.0014 | -0.0178 | 0.13 | 0.12 | 0.0483 |
| Cc1c2c(nn1C)CSCc1cc(n(C)n1)CSc1cc(c3ccccc3c1)OCCCc1c(C(=O)O)n(C)c3c-2c(Cl)ccc13 [AZD5991] + CCN(CCO)CCCOc1ccc2c(Nc3cc(CC(=O)Nc4cccc(F)c4)[nH]n3)ncnc2c1 [AZD2811] (first compound max 1 µM, 7x7, partner max 1 µM) | -0.0088 | -0.0088 | 0.0104 | 0.0097 | -0.0337 | 0.0647 | -0.0096 | -0.0173 | 0.0931 | 0.0441 | 0.0152 | 0.0825 | 0.0009 | -0.0421 | 0.101 | -0.034 | 0.0095 | 0.095 | 0.058 | 0.134 |
| Cc1c2c(nn1C)CSCc1cc(n(C)n1)CSc1cc(c3ccccc3c1)OCCCc1c(C(=O)O)n(C)c3c-2c(Cl)ccc13 [AZD5991] + CN(C)CCCOc1ccc(-c2ccc3ncc4c(c3c2)n(C2CCOCC2)c(=O)n4C)cn1 [AZD0156] (first compound max 1 µM, 7x7, partner max 1 µM) | -0.0069 | 0.0225 | -0.0012 | 0.0125 | -0.0182 | 0.0405 | 0.0093 | -0.0032 | -0.0282 | -0.0112 | -0.0387 | -0.0128 | 0.0341 | 0.0401 | -0.0186 | -0.463 | -0.0522 | 0.0335 | 0.0541 | 0.0391 |
| Cc1c2c(nn1C)CSCc1cc(n(C)n1)CSc1cc(c3ccccc3c1)OCCCc1c(C(=O)O)n(C)c3c-2c(Cl)ccc13 [AZD5991] + C[C@@H]1COCCN1C2=NC(=NC(=C2)C3(CC3)[S@](=N)(=O)C)C4=C5C=CNC5=NC=C4 [AZD6738] (first compound max 1 µM, 7x7, partner max 10 µM) | 0.0293 | 0.0858 | 0.0505 | 0.0298 | -0.0164 | 0.0623 | 0.0333 | -0.0346 | -0.0344 | -0.0127 | 0.0188 | 0.0285 | 0.0122 | 0.0224 | 0.0466 | 0.0148 | 0.0343 | 0.0799 | 0.0961 | 0.102 |
| Cc1c2c(nn1C)CSCc1cc(n(C)n1)CSc1cc(c3ccccc3c1)OCCCc1c(C(=O)O)n(C)c3c-2c(Cl)ccc13 [AZD5991] + Cc1cc2ncnn2cc1Nc1ncc2c(n1)n(C1CCOCC1)c(=O)n2C [AZD7648] (first compound max 1 µM, 7x7, partner max 10 µM) | -0.015 | -0.0169 | -0.0146 | -0.061 | -0.0402 | -0.0311 | -0.0159 | 0.0092 | -0.0048 | -0.0431 | -0.0606 | -0.0134 | -0.0234 | -0.0543 | -0.0599 | -0.0369 | -0.0197 | 0.0125 | -0.0266 | 0.0085 |
| C[C@@H]1COCCN1c1cc(C2([S@](C)(=N)=O)CC2)nc(-c2ccnc3[nH]ccc23)n1 [AZD6738] + O=C(c1cc(Cc2n[nH]c(=O)c3ccccc23)ccc1F)N1CCN(C(=O)C2CC2)CC1 [Olaparib] (first compound max 10 µM, 7x7, partner max 10 µM) | 0.0165 | 0.0725 | 0.0646 | -0.0156 | 0.013 | 0.0782 | 0.0359 | -0.0391 | 0.035 | -0.027 | 0.0071 | -0.0408 | 0.0106 | 0.0482 | 0.0019 | -0.0323 | -0.058 | -0.0159 | -0.005 | -0.0388 |
